Legend:
CD95L promoter = assay: Luciferase reporter assay in transiently transfected J-27 T cells, 0.86-kb CD95L promoter; assay type: cell-based; conditions: J-27 cells, 50 µM vitamin E 1 h, PMA/ionomycin 8 h (Fig. 4)
Excerpt: (§1) J-27 T cells were transiently transfected with the luciferase reporter constructs containing the 0.86-kb CD95L promoter (Li-Weber et al., Eur. J. Immunol. 30 (2000), 661), or three copies of the NF-κB binding sites at -530 or -50 region (Li-Weber et al., Eur. J. Immunol. 30 (2000), 661) or the AP-1 motif at +90 region (Eichhorst et al., Mol. Cell. Biol. 20 (2000), 7826) of the CD95L promoter as described in Li-Weber et al., 2000. All promoter constructs are described in the cited references. A luciferase reporter construct containing three copies of the Egr consensus binding site was used as a control (Li-Weber et al., Eur. J. Immunol. 29 (1999), 3017). After overnight culture, the cells were divided and treated with vitamin E (VE) (50 µM) or the vitamin E solvent ethanol for 1 h and than further cultured in the absence (empty box) or presence (black box) of PMA (10 ng/ml) and ionomycin (0.5 µM). Luciferase activity was determined after 8 h of stimulation. Results represent the average of three to five independent transfection experiments.
(§2) To further investigate the effect of vitamin E on CD95L expression, the CD95L promoter (-860 to +100) or a minimal TATA promoter containing three copies of either the NF-B or the AP1 sites of the CD95L promoter were linked to the luciferase reporter gene and these constructs were transiently transfected into J-27 T cells. […]

Jurkat J-27 T cells = assay: AICD of Jurkat J-27 T cells, apoptotic nuclei by DNA fragmentation; assay type: cell-based; conditions: J-27 cells
Description: J-27 T cells were induced either with PMA (10 ng/ml) Sigma (St. Louis, MO, USA) and ionomycin (0.5 µM), Calbiochem (Bad Soden/Ts, Germany) or with plate bound α-CD3 (OKT3, 50 µg/ml) for 24 h in the presence of vitamin E or equal amount of the vitamin E solvent ethanol. Apoptotic nuclei were measured by determination of DNA fragmentation (Dhein et al., Nature 373 (1995), 438).
J-27 cells were stimulated in the absence or presence of CD95-Fc (50 µg/ml) or NOKI (50 µg/ml). BD-Pharmingen (Heidelberg, Germany), for 24 h.
(§3) To further investigate the molecular mechanism by which vitamin E attenuates AICD, several Jurkat T cell sub-clones susceptible to T-cell-receptor (TCR)-mediated-activation-induced apoptosis were selected. Data from one of the representative clones, clone 27 (J-27) is presented here. Activation of T cells through the T cell receptor can be mimicked by stimulation with the phorbol ester (PMA) and calcium ionophores (ionomycin). […] Therefore, it is unlikely that vitamin E directly interferes with signals downstream of the CD95 receptor. […] Thus, vitamin E may reduce CD95L expression at the transcriptional level and, therefore, attenuate AICD in J-27 cells. Experimental details are given in the legend to Figure 2.

AP-1 = assay: Luciferase reporter assay in J-27 T cells, three copies of the CD95L promoter AP-1 motif; assay type: cell-based; conditions: J-27 cells, 50 µM vitamin E 1 h, PMA/ionomycin 8 h (Fig. 4)
Excerpt: as §1, §2

IFNγ mRNA = IFNγ mRNA by RT-PCR (control) in J-27 T cells stimulated by PMA and ionomycin; assay type: cell-based; conditions: J-27 cells, 50 µM vitamin E, PMA/ionomycin (Fig. 2E)
Description: (§4) J-27 T cells were cultured in the absence or presence of 50 µM vitamin E for 1 h and then stimulated by PMA (10 ng/ml) and ionomycin (0.5 µM) for the indicated times. CD95L mRNA expression was analyzed by RT-PCR. Primers for IFNγ and β-actin were used as controls.
as §3

CD95L mRNA [1] = assay: CD95L mRNA expression by RT-PCR in J-27 T cells stimulated by PMA and ionomycin; assay type: cell-based; conditions: J-27 cells
Description: as §4, §3

CD95L mRNA [2] = assay: CD95L mRNA levels by RT-PCR in day 6 T cells stimulated with plate bound α-CD3; assay type: cell-based, human; conditions: 25 µM vitamin E 1 h, then α-CD3 12 h (Fig. 1B)
Description: The day 6 T cells were cultured in the absence or presence of 25 µM vitamin E for 1 h and then stimulated for 12 h with plate bound α-CD3. The mRNA was analyzed by RT-PCR using primers specific for CD95L (Eichhorst et al., Mol. Cell. Biol. 20 (2000), 7826) . For controls, primers for IFNγ and β-actin were used. The primers had the following sequences: • CD95L: sense-5'-[…]-3' antisense-5'[…]-3' • IFN-γ: sense-5'[…]-3' antisense-5'[…]-3' • human β-actin: sense-5'[…]-3' antisense-5'[…]-3'
Since activation-induced-cell-death (AICD) is a major cause of T cell depletion in AIDS and since supplementation of vitamin E is shown to increase T cell numbers, it was investigated whether vitamin E could protect from T cell depletion by AICD. To analyze the effect of vitamin E on T cell death, freshly isolated peripheral blood T cells were prestimulated for 6 days (referred to as day 6 cells) and subsequently restimulated via the TCR by plate-bound α-CD3 antibodies. […] CD95 (APO-1/Fas) and its ligand (CD95L) are known to play a major role in AICD of T cells. […] The concentration of vitamin E in plasma from healthy individuals normally ranges from 12-35 µM. Thus, vitamin E at physiological concentrations may attenuate AICD. Indeed, depending on the blood donors, vitamin E reduced AICD by 20-50%. […]

J-27 cells = assay: α-APO-1 induced CD95-triggered apoptosis in J-27 cells; assay type: cell-based; conditions: 50 µM vitamin E 1 h, then α-APO-1 10 ng/ml with 10 ng/ml protein A (Fig. 2D)
Description: J-27 cells were cultured in the absence or presence of 50 µM vitamin E for 1 h and than, treated with α-APO-1 (10 ng/ml) antibody, DKFZ, Prof. Krammer, Trauth et al., Science 245 (1989), 301 in the presence of 10 ng/ml protein A for the indicated times.
as §3

Cc1c(C)c2c(c(C)c1O)CC[C@@](C)(CCC[C@H](C)CCC[C@H](C)CCCC(C)C)O2 [vitamin E, α-tocopherol]
luciferase expression driven by the CD95L promoter (CD95L promoter): greatly reduced
PMA/ionomycin-induced cell death (Jurkat J-27 T cells; PMA 10 ng/ml and ionomycin 0.5 µM, 24 h (Fig. 2A, B)): significantly reduced
α-CD3-induced cell death (Jurkat J-27 T cells; plate bound α-CD3 (OKT3, 50 µg/ml) 24 h (Fig. 2A, B)): significantly reduced
luciferase expression driven by the AP-1 site of the CD95L promoter (AP-1): greatly reduced
levels of IFNγ mRNA (IFNγ mRNA): not significantly changed
CD95L mRNA expression (CD95L mRNA [1]; 50 µM vitamin E 1 h, then PMA/ionomycin (Fig. 2E)): substantially reduced
reduction of CD95L mRNA expression (CD95L mRNA [1]; 50 µM vitamin E, 3 h post stimulation (Fig. 2E)): readily seen
CD95L mRNA expression (CD95L mRNA [1]; 50 µM vitamin E, 6 h post stimulation (Fig. 2E)): nearly completely blocked
increase of CD95L mRNA expression upon restimulation (CD95L mRNA [2]): blocked
α-APO-1 induced CD95-triggered apoptosis (J-27 cells): did not prevent

From patent EP1273297A1, “Vitamin E for the treatment of diseases in which the binding of the transcription factor NF-KB and/or AP-1 to promoter target sites has a beneficial effect (eg AIDS, cardiac infarction)” (Deutsches Krebsforschungszentrum Stiftung des öffentlichen …, priority 2001, dated 2003)
